Assays:
[1] = test system: Staphylococcus aureus (ATCC strain #6538); experiment: modified Kirby Bauer susceptibility model, zone of inhibition around antibiotic containing HA disk; assay type: cell-based; conditions: for Zone of Inhibition (mm): antibiotic absorbed into precipitated crystalline HA coating, Mueller-Hinton agar, 24 hr at 37° C.
Protocol: 1.2 Grams of tobramycin sulfate was dissolved in 12 milliliters of sterile deionized water (100 mg/ml). […] Ten (10) μl of solution was pipetted onto the surface of each of the […] coated disks and allowed to dry. […] The test coupons were then placed into a buffered saline at 37° C. immediately after the absorption process was completed. […] In the well-known Kirby Bauer Susceptibility Model test organisms were propagated and handled in accordance with ATCC recommendations for broth media, agar, and incubation specifications. […] Each seeded plate was challenged with both an antibiotic containing HA disk and a non-antibiotic containing HA disk, which served as a control. Samples were tested in duplicate (i.e., two plates per organism). Following incubation for 24 hr. at 37° C., the plates were examined for zones of inhibition around the disks. The zone of inhibition is defined as the distance between the test disk and the edge of bacterial growth. It is common for a hazy, or “ghost” zone to exist between the areas of complete inhibition and full bacterial growth. This “ghost” zone is the result of partial inhibition and is not included in the measurement of the zone of inhibition.

[2] = binding of [125I]OP-1 to PA coated titanium disks (scintillation counting); conditions: FIG. 3 time course
Protocol: Materials and Methods—Preparation of implant test articles: Titanium alloy (Ti6A14V) disks/coupons 5 mm in diameter and 3 mm thick were coated both sides with PA coating using the method of Example I. The thickness of the coating surface was determined by SEM to be nominally 20 μm to 50 μm.
Determination of the binding capacity of OP-1® Osteogenic graft material: A pre-mixed blend of unlabelled OP-1® Osteogenic graft material with iodine [^125I] for tracking purposes was used. The OP-1® Osteogenic graft material in a lactose solution was pipetted on PA coated disks in triplicate. A range of OP-1® Osteogenic graft material incubation time and concentration treatment was applied to determine the time-course and binding capacity of the graft material on the PA coated disk. Following the incubation, each coupon was washed with lactose solution and the washes were collected in a scintillation vial. 10 ml of the scintillation cocktail was added to each test article and wash sample and the scintillation counts were measured in a liquid scintillation counter (LSC) to calculate the amount of OP-1® Osteogenic graft material bound to the PA coated disk.

[3] = test system: adductor muscles (intramuscular pouch); assay type: in vivo, Long-Evans male rats
Source text: In-vivo study of OP-1® Osteogenic graft material coated implants: Freshly reconstituted OP-1® Osteogenic graft material in lactose solution was loaded onto each surface of the PA coated disk using sterile pipettes. The solution evenly spaced across the dry surface and was completely absorbed. Sixteen Long-Evans male rats with body weight 300-390 g were used in the study. The animals were anesthetized and an incision was made on the medial thigh to prepare intramuscular pouch within the adductor muscles for placement of the implant articles, on both contra-lateral limbs. A total of 32 implants were divided into 4 groups: (A) titanium disks; (B) titanium disks coated with PA, (C) titanium disks coated with PA plus OP-1® Osteogenic graft material (40 μg), (D) OP-1® Osteogenic graft material solution (40 μg). For Group C, the OP-1® Osteogenic graft material solution was directly pipeted on each Ti disk immediately before implantation. The solution was absorbed within 1 minute. For Group D, OP-1® Osteogenic graft material solution was dropped into the muscular pouch. The same amount of identical carrier solution for OP-1® Osteogenic graft material was loaded on disks of Groups A and B. After implantation, the pouch was closed with 3-0 chromic sutures, and the wound was closed in layers. The rats were housed individually and allowed unrestricted activity immediately after […]. All the animals were sacrificed 4 weeks postoperatively. The complete limb was disarticulated from hip joint and x-rayed. The implants with their surrounding tissues were retrieved. All implants were processed for undecalcified thin section histology using EXAKT technique. The slides were stained with Stevenel's blue/van Gieson's picrofuchsin method for histological analysis. Bone was stained in red color and fibrous tissue in blue. Half of the specimens of Group D were decalcified and embedded in paraffin. Sections were stained with hematoxylin and eosin.

[4] = precipitation of OP-1 protein in solution; assay type: physicochemical

Molecule | Zone of Inhibition (mm) [1] | further results
N[C@@H](C(=O)N[C@@H]1C(=O)N2C(C(=O)O)=C(Cl)CS[C@H]12)c1ccccc1 [Cefaclor] | 20.5 mm | 
Cn1nnnc1SCC1=C(C(=O)O)N2C(=O)[C@@H](NC(=O)[C@H](O)c3ccccc3)[C@H]2SC1 [Cefamandole] | 25 mm | 
CC1=C(C(=O)O)N2C(=O)[C@@H](NC(=O)[C@H](N)c3ccccc3)[C@H]2SC1 [Cephalexin] | 19 mm | 
CC(=O)OCC1=C(C(=O)O)N2C(=O)[C@@H](NC(=O)CCC[C@@H](N)C(=O)O)[C@H]2SC1 [Cephalosporin C] | 11.5 mm | 
O=C(O)c1cn(C2CC2)c2cc(N3CCNCC3)c(F)cc2c1=O [Ciprofloxacin] | 15.5 mm | 
NC[C@H]1O[C@H](O[C@H]2[C@H](O)[C@@H](O[C@H]3O[C@H](CO)[C@@H](O)[C@H](N)[C@H]3O)[C@H](N)C[C@@H]2N)[C@H](N)C[C@@H]1O [Tobramycin] | 10 mm | biological activity of released antibiotic ([1]; after absorption into the hydroxyapatite structure): remained biologically active
CN[C@H](CC(C)C)C(=O)N[C@H]1C(=O)N[C@@H](CC(N)=O)C(=O)N[C@H]2C(=O)N[C@H]3C(=O)N[C@H](C(=O)N[C@H](C(=O)O)c4cc(O)cc(O)c4-c4cc3ccc4O)[C@H](O)c3ccc(c(Cl)c3)Oc3cc2cc(c3O[C@@H]2O[C@H](CO)[C@@H](O)[C@H](O)[C@H]2O[C@H]2C[C@](C)(N)[C@H](O)[C@H](C)O2)Oc2ccc(cc2Cl)[C@H]1O [Vancomycin] | 10.5 mm | 
Penicillin [Penicillin Benzathine] | 22.5 mm | 
Penicillin [Penicillin Potassium Salt] | 29 mm | 
Penicillin [Penicillin Procaine] | 26.5 mm | 
Penicillin [Penicillin Sodium Salt] | 28 mm | 
OP-1® Osteogenic graft material: Osteogenic protein-1, a 36 kD homodimer protein in the TGI-β super-family; a bone morphogenic protein (protein, UniProt P18075 293-431, looked up, graft material, Osteogenic protein-1, a 36 kD homodimer protein in the TGI-β super-family; a bone morphogenic protein) Bone morphogenetic protein 7: STGSKQRSQNRSKTPKNQEALRMANVAENSSSDQRQACKKHELYVSFRDLGWQDWIIAPEGYAAYYCEGECAFPLNSYMNATNHAIVQTLVHFINPETVPKPCCAPTQLNAISVLYFDDSSNVILKKYRNMVVRACGCH |  | time after loading at which maximal binding to PA is achieved [2]: 5 h; extension of new bone surrounding the disks ([3]; Group C: titanium disks coated with PA plus OP-1 (40 μg), radiographic, 4 weeks): ≤ 10 mm; inflammation in the specimens ([3]; rat, in vivo): no inflammation; incidence of bone formation ([3]; the two groups treated with OP-1 (40 μg; Groups C and D), 4 weeks): 100%; concentration over which protein spontaneously precipitates [4]: over 5 mg/mL
